Reference: patent US4772586A, “Novel derivatives of arginine vasopressin antagonists” (Medical College of Ohio, priority 1986, dated 1988)
*1 amine or outer side, *2 acyl side, *3 side chain or, on linkers, in order; H or OH if unused. Where a SMILES comes first, the peptide text is derived from it. Bridges are numbered along the chain shown (N, C = ends). [ ]: non-standard residue; d: D form. The star is where a group is joined. Ethylenediamine = C(CN[*:2])N[*:1]; X1 = O=C(CC1(S[*:2])CCCCC1)[*:1]; NH(CH2)4NH2 = NCCCCN*; Sar = CNCC(=O)O

Assays:
[1] = system: vasopressor response to arginine vasopressin; assay: Antagonism to the vasopressor response (Anti-VP); type: in vivo; conditions: estimated in vivo pA2; for Anti-VP pA2: Table 1
Protocol: Antagonism to the vasopressor response was estimated in accordance with Dyckes et al., J. Med. Chem., vol. 17 (1974) at 969. The values are expressed as pA2 values, defined as in Schild et al., Br. J. Pharmacol., vol. 2 (1947) at 189.
(§1) Antagonistic potencies were determined and expressed as "effective doses" and pA2 values. The "effective dose" is defined as the dose (in nanomoles per kilogram) that reduces the response seen from 2x units of agonist injected 20 min after the dose of antagonist to the response with 1x units of agonist. Estimated in vivo "pA2 " values represent the negative logarithms of the effective doses, divided by the estimated volume of distribution (67 ml/kg).

[2] = system: antidiuretic response to arginine vasopressin; assay: Antagonism of the antidiuretic response to arginine vasopressin (Anti-ADH); type: in vivo, rats; conditions: for Anti-ADH Potency pA2: estimated in vivo pA2; for Anti-ADH pA2: Table 1, estimated in vivo pA2 = negative log of effective dose divided by volume of distribution (67 ml/kg)
Protocol: Activity as antidiuretic agonists was determined by intravenous injection of the compounds being evaluated in ethanol-anesthesized water-loaded rats in accordance with Sawyer, Endocrinology, vol. 63 (1958) at 694. Antagonism of the antidiuretic response to subsequent injections of arginine vasopressin was tested by the method of Sawyer et al., Science, vol. 212 (1981) at 49.
as §1

| SMILES | Anti-VP Potency pA2 ([1]; Table 2) | Anti-ADH Potency pA2 ([2]; Table 2) | Anti-VP Potency pA2 ([1]; Table 4, ^+ = mixed) | Anti-ADH Potency pA2 ([2]; Table 4) | Anti-VP pA2 [1] | Anti-ADH pA2 [2] |
| --- | --- | --- | --- | --- | --- | --- |
| CC[C@H](C)[C@@H]1NC(=O)[C@H](Cc2ccccc2)NC(=O)[C@@H](Cc2ccccc2)NC(=O)CC2(CCCCC2)SSC[C@@H](C(=O)N2CCC[C@H]2C(=O)N[C@@H](CCCNC(=N)N)C(=O)N[C@@H](CO)C(N)=O)NC(=O)[C@H](CC(N)=O)NC1=O [Ser(NH2), [1-(beta-mercapto-beta,beta-cyclopentamethylenepropionic acid), 2-D-phenylalanine, 4-isoleucine, 9-serinamide]-arginine vasopressin] ([dF]FINCPRS-NH2; linker N-5 via X1) | 8.10 ± 0.08 | 8.10 ± 0.07 | – | – | – | – |
| CC[C@H](C)[C@@H]1NC(=O)[C@H](Cc2ccccc2)NC(=O)[C@@H](Cc2ccccc2)NC(=O)CC2(CCCCC2)SSC[C@@H](C(=O)N2CCC[C@H]2C(=O)N[C@@H](CCCNC(=N)N)C(=O)NCC(=O)NCCN)NC(=O)[C@H](CC(N)=O)NC1=O [[1-(beta-mercapto-beta,beta-cyclopentamethylenepropionic acid), 2-D-phenylalanine, 4-isoleucine, 9-glycine-N-(beta-amino)ethylamide]-arginine vasopressin] ([dF]FINCPRG-Ethylenediamine; linker N-5 via X1) | – | – | 7.58 ± 0.07 | 8.10 ± 0.10 | – | – |
| CCNC(=O)CNC(=O)[C@H](CCCNC(=N)N)NC(=O)[C@@H]1CCCN1C(=O)[C@@H]1CSSC2(CCCCC2)CC(=O)N[C@H]([C@H](C)CC)C(=O)N[C@@H](Cc2ccccc2)C(=O)N[C@@H]([C@@H](C)CC)C(=O)N[C@@H](CC(N)=O)C(=O)N1 [[1-(beta-mercapto-beta,beta-cyclopentamethylenepropionic acid), 2-D-isoleucine, 4-isoleucine, 9-glycine-N-ethylamide]-arginine vasopressin] ([dI]FINCPRG-NHEt; linker N-5 via X1) | – | – | 6.54 ± 0.11 | 7.86 ± 0.05 | – | – |
| CC(C)[C@@H]1NC(=O)[C@H](Cc2ccccc2)NC(=O)[C@@H](Cc2ccccc2)NC(=O)CC2(CCCCC2)SSC[C@@H](C(=O)N2CCC[C@H]2C(=O)N[C@@H](CCCNC(=N)N)C(N)=O)NC(=O)[C@H](CC(N)=O)NC1=O [desGly^9 d(CH2)5 [D-Phe^2]VAVP, [1-(beta-mercapto-beta,beta-cyclopentamethylenepropionic acid), 2-D-phenylalanine, 4-valine, 9-desglycine]-arginine vasopressin] ([dF]FVNCPR-NH2; linker N-5 via X1) | – | – | – | – | 8.15 ± 0.03 | 8.09 ± 0.08 |
| COc1ccc(C[C@@H]2NC(=O)CC3(CCCCC3)SSC[C@@H](C(=O)N3CCC[C@H]3C(=O)N[C@@H](CCCNC(=N)N)C(=O)O)NC(=O)[C@H](CC(N)=O)NC(=O)[C@H](CCC(N)=O)NC(=O)[C@H](Cc3ccccc3)NC2=O)cc1 [desGly(NH2)^9 d(CH2)5 [Tyr(Me)^2]AVP] (Y(Me)FQNCPR-OH; linker N-5 via X1) | – | – | – | – | 8.46 ± 0.05 | ~ 5.4 |
| CCOc1ccc(C[C@H]2NC(=O)CC3(CCCCC3)SSC[C@@H](C(=O)N3CCC[C@H]3C(=O)N[C@@H](CCCNC(=N)N)C(N)=O)NC(=O)[C@H](CC(N)=O)NC(=O)[C@H](C(C)C)NC(=O)[C@H](Cc3ccccc3)NC2=O)cc1 [desGly^9 d(CH2)5 [D-Tyr(Et)^2]VAVP, [1-(beta-mercapto-beta,beta-cyclopentamethylenepropionic acid), 2-D-(O-ethyl)tyrosine, 4-valine, 9-desglycine]-arginine vasopressin] ([dY](Et)FVNCPR-NH2; linker N-5 via X1) | – | – | – | – | 8.17 ± 0.04 | 7.69 ± 0.08 |
| CCOc1ccc(C[C@H]2NC(=O)CC3(CCCCC3)SSC[C@@H](C(=O)N3CCC[C@H]3C(=O)N[C@@H](CCCNC(=N)N)C(=O)NCC(=O)NC)NC(=O)[C@H](CC(N)=O)NC(=O)[C@H](C(C)C)NC(=O)[C@H](Cc3ccccc3)NC2=O)cc1 [[1-(beta-mercapto-beta,beta-cyclopentamethylenepropionic acid), 2-D-(O-ethyl)tyrosine, 4-valine, 9-glycine-N-methylamide]-arginine vasopressin] ([dY](Et)FVNCPRG-NHMe; linker N-5 via X1) | – | – | 7.71 ± 0.04 | 7.58 ± 0.06 | – | – |
| COc1ccc(C[C@@H]2NC(=O)CC3(CCCCC3)SSC[C@@H](C(=O)N3CCC[C@H]3C(=O)N[C@@H](CCCNC(=N)N)C(N)=O)NC(=O)[C@H](CC(N)=O)NC(=O)[C@H](CCC(N)=O)NC(=O)[C@H](Cc3ccccc3)NC2=O)cc1 [desGly^9 d(CH2)5 [Tyr(Me)^2]AVP, [1-(beta-mercapto-beta,beta-cyclopentamethylenepropionic acid), 2-(O-methyl)tyrosine, 9-desglycine]-arginine vasopressin] (Y(Me)FQNCPR-NH2; linker N-5 via X1) | – | – | – | – | 8.44 ± 0.10 | ~ 6.1 |
| CNC(=O)CN(C)C(=O)[C@H](CCCNC(=N)N)NC(=O)[C@@H]1CCCN1C(=O)[C@@H]1CSSC2(CCCCC2)CC(=O)N[C@@H](Cc2ccc(OC)cc2)C(=O)N[C@@H](Cc2ccccc2)C(=O)N[C@@H](CCC(N)=O)C(=O)N[C@@H](CC(N)=O)C(=O)N1 [d(CH2)5 [Tyr(Me)^2, Sar(NHMe)^9]AVP, [1-(beta-mercapto-beta,beta-cyclopentamethylenepropionic acid), 2-O-methyltyrosine, 9-sarcosine-N-methylamide]-arginine vasopressin] (Y(Me)FQNCPR[Sar]-NHMe; linker N-5 via X1) | – | – | 8.31 ± 0.03 | ~ 5.5 | – | – |
| CC[C@H](C)[C@@H]1NC(=O)[C@H](Cc2ccccc2)NC(=O)[C@@H](Cc2ccccc2)NC(=O)CC2(CCCCC2)SSC[C@@H](C(=O)N2CCC[C@H]2C(=O)N[C@@H](CCCNC(=N)N)C(=O)O)NC(=O)[C@H](CC(N)=O)NC1=O [[1-(beta-mercapto-beta,beta-cyclopentamethylenepropionic acid), 2-D-phenylalanine, 4-isoleucine, 9-desglycinamide]-arginine vasopressin] ([dF]FINCPR-OH; linker N-5 via X1) | – | – | 7.84 ± 0.03 | 8.05 ± 0.09 | 6.74 ± 0.08 | 7.20 ± 0.10 |
| COc1ccc(C[C@@H]2NC(=O)CC3(CCCCC3)SSC[C@@H](C(=O)N3CCC[C@H]3C(=O)N[C@@H](CCCNC(=N)N)C(=O)NCCN)NC(=O)[C@H](CC(N)=O)NC(=O)[C@H](CCC(N)=O)NC(=O)[C@H](Cc3ccccc3)NC2=O)cc1 [[1(beta-mercapto-beta,beta-cyclopentamethylenepropionic acid), 2-(O-methyl)tyrosine, 8-arginine-N-(beta-amino)ethylamide, 9-desglycinamide] vasopressin] (Y(Me)FQNCPR-Ethylenediamine; linker N-5 via X1) | – | – | 8.75 ± 0.06 | ~ 6.3 | – | – |
| CCOc1ccc(C[C@H]2NC(=O)CC3(CCCCC3)SSC[C@@H](C(=O)N3CCC[C@H]3C(=O)N[C@@H](CCCNC(=N)N)C(=O)NCCCCN)NC(=O)[C@H](CC(N)=O)NC(=O)[C@H]([C@@H](C)CC)NC(=O)[C@H](Cc3ccccc3)NC2=O)cc1 [[1-(beta-mercapto-beta,beta-cyclopentamethylenepropionic acid), 2-D-(O-ethyl)tyrosine, 4-isoleucine, 8-arginine-N-(delta-amino)butylamide,9-desglycinamide] vasopressin] ([dY](Et)FINCPR-{NH(CH2)4NH2}; linker N-5 via X1) | – | – | 7.78 ± 0.4 | 7.68 ± 0.05 | – | – |
